Laboratory results as given in patent US8822440B2, “Inhibiting cyclin D polypeptides” (Mayo Foundation for Medical Education and Research, priority 2006, dated 2014).
“Also recorded” adds a separate entry of the source.

Experiments:
CCND2 promoter = assay: CCND2 promoter-luciferase transactivation assay in NIH3T3 cells with or without c-maf; format: cell-based, mouse; settings: ~5 μM, 16 hours; hit = 50% or more reduction in luciferase relative to cell viability
Experimental: Using this assay, Lopac (n=1280), Prestwick (n=1120), and Spectrum (n=2000) libraries of drugs and natural compounds were screened. In a parallel MTS assay, the effect of each compound on 3T3 viability was determined, allowing exclusion of compounds that caused secondary suppression of CCND2 due to non-specific cytotoxicity. […] These included monensin, patulin, β-lapachone, camptothecin, dihydrogambogic acid, gentian violet, thapsigargin, brefeldin A, pristimerin, and kinetin riboside.
Full-length c-maf cDNA was subcloned into an IRES-GFP MIEV retroviral vector and introduced into NIH3T3 cells by infection. Stable clones expressing GFP and c-maf were selected by flow cytometry and immunoblotting, respectively. The promoter of human cyclin D2 (−894 to −4; Brooks et al., J. Biol. Chem., 271, 9090-9 (1996)), containing c-maf responsive element sequence (MARE), was cloned from DNA from HeLa cells and inserted into the pGLbasic firefly luciferase vector (Promega, Madison, Wis.) immediately upstream of the luciferase gene. This construct was co-transfected with pcDNA3 (containing a neomycin resistance gene) into both NIH3T3 wild type cells and NIH3T3 cells stably over-expressing c-maf-IRES-GFP. Cells stably expressing c-maf, GFP, and luciferase were selected.
(§1) NIH3T3 cells stably expressing c-maf and the CCND2 promoter driving luciferase (13,000 cells per well) were plated in 96-well plates by a Biomek FX liquid handler (Beckman, Fullerton, Calif.). After the cells had adhered, they were treated with aliquots of molecules from LOPAC (Sigma, St. Louis, Mo.), Prestwick (Prestwick Chemical Inc, Illkirch, France) or Spectrum (Microsource Discovery Systems, Gaylordsville, Conn.) libraries of off-patent drugs and chemicals at a final concentration of ˜5 μM and <0.1% DMSO. Cells were incubated with compounds at 37° C. for 16 hours.
Luciferase assay. Luciferase activity was assessed according to the manufacturer's instructions (Promega, Madison, Wis.). Briefly, the cell culture medium was removed using an EMBLA plate washer (Molecular Devices, X) and Glo Lysis buffer (Promega) was added by robot. After a 10-minute incubation, an equal volume of Bright-Glo Luciferase substrate (Promega) was added, and luminescence signal was detected with a 96-well Luminoskan luminescence plate reader (Thermo Labsystem, Waltham, Mass.) using a 5 second integration.
Studies of kinetin riboside using 3T3-D2-luc cells. To examine CCND2 suppression induced by kinetin riboside, the reporter cells were exposed to kinetin riboside in combination with other drugs (all purchased from Sigma, St. Loius, Mo.) that influence CCND2 transcription or inhibit nucleoside transport or phosphorylation. NIH3T3 cells expressing the CCND2 promoter driving luciferase were incubated with kinetin riboside or vehicle control +/− forskolin, 4-(3-butoxy-4-methoxybenzyl)imidazolidin-2-one (BMBI), cantharadin, S-(4-Nitrobenzyl)-6-thioinosine (NBTI), or A-134974, as specified at 5 μM concentration for 16 hours at 37° C. […] Forskolin is a cell-permeable diterpenoid that activates adenylate cyclase resulting in increased cAMP concentration. BMBI (Sigma B8279) is an inhibitor of cAMP phosphodiesterase that also causes accumulation of cAMP. Cantharadin (C7632) is an inhibitor of protein phosphatase 2A and, from the library screen, mediates induction of CCND2. NBTI (Sigma N2255) is a potent adenosine uptake inhibitor, and A-134974 (Sigma A2846) is a selective inhibitor of adenosine kinase.
(§2) In an optimized automated assay, NIH3T3 cells over-expressing c-maf and the human cyclin D2 promoter driving luc were plated in 96-well plates by robot and following adhesion were treated for 16 hours with compounds at a final concentration of ˜5 μM and <0.1% DMSO. As a control, cells were treated with buffer alone. […] Thus, each compound from the library was tested in at least two assays—luciferase for CCND2 activity and MTS for viability. The coefficient of variance (CV) of the assay was <10%.

NIH3T3 cells = format: cell-based, mouse; settings: MTS
Experimental: as §1
(§3) Viability assay. The effects of screened compounds on cell viability was assessed by 3-(4,5-dimethyl[…])-5-(3-carboxymethoxyphenyl)-2-(4-sulfophenyl)-2-H-tetrazolium (MTS) assay according to the manufacture's instructions (Progmega, Madison, Wis.). MTS reagent (20 μL/well in 96 well plates) was added to cells, and these were then incubated at 37° C. for 4 hours. Absorbance at 490 nm was determined using a 96-well plate reader.
as §2

RSV promoter = assay: Luciferase driven by RSV promoter in NIH3T3 cells (specificity control); format: cell-based
Description: Exclusion of non-specific or toxic assay ‘hits.’ Drugs that decreased luciferase activity without affecting viability may cause reduced transactivation of the cyclin D2 promoter, or may act non-specifically on the activity of the luciferase enzyme. To distinguish between these two possibilities, hits were re-tested against NIH3T3 cells that over-expressed luciferase driven by an RSV promoter. […] Therefore, these drugs were excluded from further analysis.

[1] = system: human myeloma cell lines (HMCL); assay: HMCL viability / cytotoxicity (MTT, MTS); format: cell-based
Experimental: Subsequent validation studies using selected compounds in human myeloma cell lines (HMCL) confirmed successful suppression of both cyclin D2 and D1 polypeptides. Each of these compounds was then shown to be cytotoxic to a genetically diverse and standardized panel of 14 HMCL in MTT assays: monensin (10-760 nM), camptothecin (5-700 nM), dihydrogambogic acid (250-800 nM), pristimerin (150-500 nM), and kinetin riboside (2.5-20 μM). Cell cycle analysis confirmed induction of G0/G1 phase arrest for most compounds, consistent with cyclin D inhibition.
as §3

[2] = system: CD138− hematopoietic cells; assay: Unsorted myeloma patient bone marrow, flow cytometry: CD138- non-malignant cells; format: cell-based; settings: patient bone marrow, 48 hours
Experimental: Flow cytometry. HMCL were treated as indicated and then washed in cold phosphate-buffered saline (PBS) and resuspended in buffer containing AnnexinV-FITC and propidium iodide (BD Biosciences, San Jose, Calif.) for 15 minutes at room temperature. Cells (10^5) were subsequently diluted and analyzed immediately by flow cytometry (FACScan, BD Biosciences, San Jose, Calif.) using CellQuest software. Patient bone marrow specimens were prepared and analyzed in a similar fashion using AnnexinV-FITC and anti-CD138-PE (BD Biosciences, San Jose, Calif.).
As mouse embryos that lack any D-cyclins eventually die from hematopoietic failure (Kozar et al., Cell, 118, 477-91 (2004)), the bone marrow might be predicted to be one of the most sensitive non-malignant tissue to be affected by drugs targeting cyclin D expression. Unsorted bone marrow samples from myeloma patients were treated with kinetin riboside to assess the relative cytotoxicity of this drug on malignant versus non-malignant marrow cells. Bone marrow samples were first processed to remove non-nucleated red cells and were then treated for 48 hours with kinetin riboside (5 μM).

[3] = Pristimerin toxicity studies in mice; format: in vivo; settings: i.p. daily
Experimental: While pristimerin is cytotoxic to HMCL and patient myeloma cells at 0.1-0.15 mg/L, toxicity studies in vivo indicate that the drug is tolerated in mice at 2.5 mg/kg i.p. daily.

| Compound | identified as putative inhibitor of CCND2 transactivation (screen hit) (CCND2 promoter) | effect on NIH3T3 viability (NIH3T3 cells) | effect on luciferase driven by RSV promoter (RSV promoter) | cytotoxic concentration ([1]; HMCL and patient myeloma cells) [mg/L] | cytotoxic concentration across panel of 14 HMCL ([1]; MTT assays, 14 HMCL) [nM] | toxicity in CD138− bone marrow progenitor compartment [2] | dose tolerated in mice [3] [mg/kg] |
| --- | --- | --- | --- | --- | --- | --- | --- |
| O=C1C=C2C(=CCOC2O)O1 (centres unmarked) [patulin] | putative CCND2 inhibitors; also recorded: putative suppressors of CCND2 | excess NIH3T3 cytoxicity | non-specifically reduce luciferase activity |  |  |  |  |
| COC(=O)[C@]1(C)CC[C@]2(C)CC[C@]3(C)C4=CC=C5C(=CC(=O)C(O)=C5C)[C@]4(C)CC[C@@]3(C)[C@@H]2C1 [pristimerin] |  | relatively minor effects |  | 0.1 to 0.15 | 150 to 500 | only modest toxicity | 2.5 |
